Reference: patent US20230083730A1, “Composition with Anti-Aging Properties and the Selection Method thereof” (Hemix Biotech Limited, priority 2021, published 2023)

Experiments:
[1] = tested on: human bone marrow mesenchymal stem cells (MSCs); test: human bone marrow mesenchymal stem cell viability assay (MTS); type: cell-based; conditions: 2 days treatment; FIG. 4
Description: Firstly, cells were cultured in 96-well plate and CellTiter 96® AQueous One Solution Cell Proliferation Assay (MTS) was used to carry out the cell viability assay. For human mesenchymal stem cells (MSCs), they were seeded and cultured in 96-well plate and treated with control, resveratrol, spermidine or combined treatment for 2 days. Human bone marrow mesenchymal stem cells (MSCs) were treated with four batches of chemical having different ingredients and concentrations of spermidine and resveratrol for two days under identical experimental conditions. The ingredients and concentrations of spermidine and resveratrol of the four different chemicals are: control blank, spermidine alone, resveratrol alone, and a combined use of spermidine and resveratrol.

Caenorhabditis elegans [2] = test: Caenorhabditis elegans lifespan analysis; type: in vivo; conditions: 200 μM spermidine alone, 10 μM resveratrol alone, or both combined; FIG. 1a
Description: According to an embodiment of the present invention, i.e., a method for selecting a composition having anti-aging properties, step 1 of the method is to confirm the life-span enhancing effect of the composition by using Caenorhabditis elegans lifespan analysis. For chemical treatment in Caenorhabditis elegans, four batches of chemical with different ingredients and content were added to the nematode growth medium (NGM) dishes. The NGM with agarose was autoclaved and then cooled down to below 65° C. The NGM was then poured into 60 mm dishes and incubated at room temperature overnight. The solidified NGM dishes were stored at 4° C. Escherichia coli OP50 strain was used as the food source for C. elegans. A single colony of OP50 was incubated in 200 mL of lysogeny broth (LB) medium at 37° C. overnight. The OP50 was then killed by incubation at 65° C. for 30 minutes. The dead OP50 was spread throughout the surface of the NGM dishes. The NGM dishes with dead OP50 were stored at 4° C. for up to 2 weeks. The synchronization of C. elegans was carried out by the bleaching method. 20 L4 larvae were picked to each 60 mm dish with different chemical treatment and cultured at 20° C. They were monitored every day, and the number of living, dead and missing C. elegans were recorded. […]

Caenorhabditis elegans [3] = conditions: prior art literature; cited from earlier work

Row | Compound | cell viability of human bone marrow MSCs [1] | life span of Caenorhabditis elegans (Caenorhabditis elegans [2]) | effective concentration to extend the lifespan of Caenorhabditis elegans (Caenorhabditis elegans [3]) [µM]
1 | Oc1ccc(C=Cc2cc(O)cc(O)c2)cc1 [resveratrol, 3,5,4′-trihydroxystilbene] | can enhance cell viability | higher than that of the control blank | 100
2 | NCCCCNCCCN [spermidine] | can enhance cell viability | higher than that of the control blank | 200
